Assay results taken from patent US20240034743A9, “TRICYCLIC COMPOUNDS AS EGFR INHIBITORS” (QILU PHARMACEUTICAL CO., LTD., priority 2020, published 2024).
Read-outs that look alike come from different tables or passages of the source.

Assays:
[1] = test system: A431 cells (EGFR WT); experiment: A431 cell proliferation inhibition assay (CellTiter-Glo); format: cell-based; settings: Homo sapiens
Experimental: A431 Cell Proliferation Inhibition Assay
In the assay, the inhibition effect of the compounds on the proliferation of A431 cells was tested by adopting a CellTiter-Glo method, and the concentration IC50 of the compound for inhibiting half maximal growth of cells was obtained.
A431 cells, purchased from ATCC.
DMEM medium, fetal bovine serum (FBS), and Penicillin-Streptomycin, purchased from GIBCO.
(§1) Brigatinib, purchased from Selleck.
(§2) CellTiter-Glo reagent, purchased from Promega.
1) A431 cells were seeded in a 384-well plate at a density of 800 cells/well with 30 μL/well, and the plate was cultured in a cell incubator for 24 h (37° C., 5% CO2).
(§3) 2) Day 0: […] of gradiently-diluted compounds to be tested with a final concentration of DMSO of 0.1% was added to plate using Echo, and the plate was incubated in a cell incubator for 72 h (37° C., 5% CO2). […] of DMSO was added into each well in blank control group.
(§4) 3) Day 3: 30 μL Cell Titer-Glo reagent was added to each well, and the plate was in the dark under room temperature for 30 min.
(§5) 4) The chemiluminescent signal was detected by an Envision plate reader (PerkinElmer).
(§6) 5) Data analysis was performed using GraphPad Prism software to give the IC50 for compounds.

[2] = test system: Ba/F3_Del19/T790M/C797S cells; experiment: Ba/F3_Del19/T790M/C797S cell proliferation inhibition assay (CellTiter-Glo); format: cell-based; settings: Mus musculus
Experimental: Ba/F3_Del19/T790M/C797S Cell Proliferation Inhibition Assay
In the assay, the inhibition effect of the compounds on the proliferation of Ba/F3_Del19/T790M/C797S cells was tested by adopting a CellTiter-Glo method, and the concentration IC50 of the compound for inhibiting half maximal growth of cells was obtained.
Ba/F3_Del19/T790M/C797S, purchased from Kyinno Biotechnology Co., Ltd. 1640 medium, fetal bovine serum (FBS), Penicillin-Streptomyces, and GlutaMAX-I Supplement, purchased from GIBCO.
as §1, §2
1) Ba/F3_Del19/T790M/C797S cells were seeded in a 384-well plate at a density of 700 cells/well with 30 μL/well.
as §3, §4, §5
Data analysis was performed using GraphPad Prism 6 software to give the IC50 for compounds.

[3] = molecular target: EGFR WT (wild type EGFR) (Homo sapiens (Human), UniProt P00533); experiment: In vitro enzymatic TR-FRET (HTRF KinEASE-TK) kinase assay, EGFR WT; format: biochemical
Experimental: (I) In Vitro Enzymatic Experiment for EGFR WT and EGFR L858R/T790M/C797S
In the assay, the inhibition effect of the compound on the kinase activity of EGFR WT (wild type EGFR) and EGFR L858R/T790M/C797S was tested by adopting a time-resolved fluorescence resonance energy transfer (TR-FRET) method, and half maximal inhibitory concentration IC50 of the compound on the kinase activity of EGFR was obtained.
EGFR recombinase and EGFR L858R/T790M/C797S recombinase, purchased from Signalchem.
HTRF KinEASE-TK kit, purchased from Cisbio.
DTT, MnCl2, and MgCl2, purchased from Sigma.
ATP, purchased from Promega.
as §1
1) 1× working solution was prepared: 5 mM MgCl2; 1 mM DTT; 1 mM MnCl2 and 1× kinase buffer (in kit).
2) […] of gradiently-diluted compound was transferred to a 384-well plate using Echo 550 (Labcyte).
3) 5 μL of 2× EGFR WT or EGFR L858R/T790M/C797S recombinase solution was added to the 384-well plate, and the plate was incubated at room temperature for 10 min.
4) 5 μL of 2× TK-substrate-biotin substrate solution (containing ATP) was added to the 384-well plate, and the plate was incubated at room temperature for 40 min.
5) 5 μL of assay solution containing Sa-XL 665 HTRF and 5 μL of TK-antibody-Cryptatewas were added to the plate, and the plate was incubated at room temperature for 1 h.
6) The fluorescence signal values at 615 nm and 665 nm were measured for each well using an Envision microplate reader (PerkinElmer).
7) The ratio of fluorescence signal values at 665 nm and 615 nm was calculated for each well.
8) Data analysis was performed using GraphPad Prism software to give the IC50 for compounds.

[4] = test system: Ba/F3_L858R/T790M/C797S cells; experiment: Ba/F3_L858R/T790M/C797S cell proliferation inhibition assay (CellTiter-Glo); format: cell-based; settings: Mus musculus
Experimental: Ba/F3_L858R/T790M/C797S Cell Proliferation Inhibition Assay
In the assay, the inhibition effect of the compounds on the proliferation of Ba/F3_L858R/T790M/C797S cells was tested by adopting a CellTiter-Glo method, and the concentration IC50 of the compound for inhibiting half maximal growth of cells was obtained.
Ba/F3_L858R/T790M/C797S cells were constructed by Pharmaron Beijing Co., Ltd.
1640 medium, fetal bovine serum (FBS), Penicillin-Streptomyces, and GlutaMAX-I Supplement, purchased from GIBCO.
as §1, §2
1) Ba/F3_L858R/T790M/C797S cells were seeded in a 384-well plate at a density of 700 cells/well with 30 μL/well.
as §3, §4, §5, §6

[5] = A-431, cell proliferation, 72 h, CellTiter-Glo, read-out: A431 EGFR WT IC50
[6] = BaF3, cell proliferation, 72 h, CellTiter-Glo, read-out: Ba/F3 (Del19/T790M/C797S) IC50
[7] = kinase activity, TR-FRET, read-out: EGFR (WT) IC50
[8] = BaF3, cell proliferation, 72 h, CellTiter-Glo, read-out: Ba/F3 (L858R/T790M/C797S) IC50
[9] = A-431, 72 h, read-out: A431 EGFR WT IC50(nM)
[10] = BaF3, 72 h, read-out: Ba/F3 (Del19/T790M/C797S) IC50(nM)
[11] = BaF3, 72 h, read-out: Ba/F3 (L858R/T790M/C797S) IC50(nM)

EGFR WT (wild type EGFR), sequence (P00533 25-1210): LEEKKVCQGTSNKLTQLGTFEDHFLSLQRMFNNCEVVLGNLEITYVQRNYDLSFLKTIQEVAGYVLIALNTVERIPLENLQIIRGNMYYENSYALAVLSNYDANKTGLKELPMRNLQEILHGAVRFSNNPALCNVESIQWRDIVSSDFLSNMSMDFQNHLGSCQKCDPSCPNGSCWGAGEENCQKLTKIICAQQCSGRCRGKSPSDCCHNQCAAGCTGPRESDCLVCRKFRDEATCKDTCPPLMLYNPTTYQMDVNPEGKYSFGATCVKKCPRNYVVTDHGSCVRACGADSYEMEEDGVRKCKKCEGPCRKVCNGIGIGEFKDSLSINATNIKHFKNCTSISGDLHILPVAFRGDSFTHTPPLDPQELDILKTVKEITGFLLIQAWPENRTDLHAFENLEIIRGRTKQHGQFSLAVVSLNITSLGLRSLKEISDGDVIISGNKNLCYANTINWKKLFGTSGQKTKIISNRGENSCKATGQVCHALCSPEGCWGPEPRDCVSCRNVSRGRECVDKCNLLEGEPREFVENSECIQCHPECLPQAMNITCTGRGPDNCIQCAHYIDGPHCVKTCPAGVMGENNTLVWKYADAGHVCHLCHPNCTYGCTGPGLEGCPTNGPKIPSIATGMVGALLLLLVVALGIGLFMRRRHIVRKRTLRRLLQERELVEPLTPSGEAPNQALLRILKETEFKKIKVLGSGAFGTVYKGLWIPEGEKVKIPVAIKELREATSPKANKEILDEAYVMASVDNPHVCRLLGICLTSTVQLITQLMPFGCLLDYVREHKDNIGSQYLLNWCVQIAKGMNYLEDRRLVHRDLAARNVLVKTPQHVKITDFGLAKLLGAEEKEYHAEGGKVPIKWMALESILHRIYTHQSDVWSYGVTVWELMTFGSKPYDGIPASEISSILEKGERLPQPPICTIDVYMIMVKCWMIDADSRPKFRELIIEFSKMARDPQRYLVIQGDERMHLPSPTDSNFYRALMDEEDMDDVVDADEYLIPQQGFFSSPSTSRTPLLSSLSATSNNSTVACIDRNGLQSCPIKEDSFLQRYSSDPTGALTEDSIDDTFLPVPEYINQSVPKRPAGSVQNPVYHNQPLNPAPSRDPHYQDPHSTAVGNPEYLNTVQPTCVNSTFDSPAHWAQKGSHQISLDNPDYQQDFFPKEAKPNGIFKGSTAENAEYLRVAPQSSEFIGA

SMILES | IC50 [1, 5] [nM] | IC50 [2, 6] [nM] | IC50 [3, 7] [nM] | IC50 [4, 8] [nM] | IC50 [1, 9] [nM] | IC50 [2, 10] [nM] | IC50 [4, 11] [nM] | IC50 [3] [nM]
COc1cc2c(cc1Nc1ncc(Cl)c(Nc3ccccc3P(C)(C)=O)n1)-c1cnn(C)c1CCN2C [Compound 14] | 100 to 1000 | < 10 | 1 to 10 | < 10 |  |  |  | 
COc1cc2c(cc1Nc1ncc(Br)c(Nc3ccccc3P(C)(C)=O)n1)-c1cnc(C)n1CCN2C [Compound 55] | 100 to 1000 | 10 to 50 | 10 to 50 | 100 to 1000 |  |  |  | 
COc1cc2c(cc1Nc1ncc(Br)c(Nc3ccccc3P(C)(C)=O)n1)-c1cnn(C)c1C(F)(F)CN2 [Compound 92] | 100 to 1000 | < 10 | 1 to 10 | 10 to 50 |  |  |  | 
COc1cc2c(cc1Nc1ncc(Cl)c(Nc3ccc4nccnc4c3NS(C)(=O)=O)n1)-c1cnn(C)c1CCN2C(C)C [Compound 103] | 100 to 1000 | < 10 | 1 to 10 | < 10 |  |  |  | 
COc1cc2c(cc1Nc1ncc(Br)c(Nc3ccc4nccnc4c3P(C)(C)=O)n1)-c1cnn(C)c1CCN2 [Compound 16] |  |  | 1 to 10 |  | 50 to 100 | < 10 | < 10 | 
CCn1ncc2c1CCN(C)c1cc(OC)c(Nc3ncc(Br)c(Nc4ccccc4P(C)(C)=O)n3)cc1-2 [Compound 39] |  |  | 10 to 50 |  | 100 to 1000 | 10 to 50 | 10 to 50 | 
COc1cc2c(cc1Nc1ncc(Br)c(Nc3ccnc(C)c3NS(C)(=O)=O)n1)-c1cnn(C)c1CCN2C [Compound 136] | > 1000 | 100 to 1000 | 1 to 10 | 100 to 1000 |  |  |  | 
COc1nc2c(cc1Nc1ncc(Br)c(Nc3ccccc3P(C)(C)=O)n1)-c1cnn(C)c1CCN2C [Compound 79] | 100 to 1000 | 10 to 50 | 10 to 50 | 10 to 50 |  |  |  | 
COc1cc2c(cc1Nc1ncc(Br)c(Nc3ccc4nccnc4c3N(C(C)C)S(C)(=O)=O)n1)-c1cnn(C)c1CCN2 [Compound 123] |  |  |  |  | 100 to 1000 | < 10 | < 10 | 1 to 10
COc1cc2c(cc1Nc1nc(Nc3ccccc3P(C)(C)=O)c3sccc3n1)-c1cnn(C)c1CCN2C [Compound 58] | > 1000 | 10 to 50 | 10 to 50 | 10 to 50 |  |  |  | 
COc1cc2c(cc1Nc1ncc(Br)c(Nc3ccc(F)cc3NS(C)(=O)=O)n1)-c1cnn(C)c1CCN2C(C)C [Compound 128] | > 1000 | < 10 | 1 to 10 | < 10 |  |  |  | 
CCc1cnc(Nc2cc3c(cc2OC)N(C)CCc2c-3cnn2C)nc1Nc1ccccc1P(C)(C)=O [Compound 25] | 100 to 1000 | < 10 | 1 to 10 | 10 to 50 |  |  |  | 
COc1cc2c(cc1Nc1ncc(Br)c(Nc3ccc4nccnc4c3CNS(C)(=O)=O)n1)-c1cnn(C)c1CCN2C(C)C [Compound 137] | 100 to 1000 | 10 to 50 | 1 to 10 | 10 to 50 |  |  |  | 
COc1cc2c(cc1Nc1ncc(Br)c(Nc3ccccc3P(C)(C)=O)n1)-c1cn[nH]c1CCN2C [Compound 37] | 100 to 1000 | < 10 | 1 to 10 | 10 to 50 |  |  |  | 
COc1cc2c(cc1Nc1ncc(Br)c(Nc3ccc4nccnc4c3N(C)S(C)(=O)=O)n1)-c1cnn(C)c1CCN2C1CCOCC1 [Compound 138] | 100 to 1000 | < 10 | 1 to 10 | < 10 |  |  |  | 
COc1cc2c(cc1Nc1ncc(Br)c(Nc3ccccc3S(=O)(=O)N(C)C)n1)-c1cnn(C)c1CCN2C(C)C [Compound 126] | > 1000 | 100 to 1000 | 1 to 10 | 100 to 1000 |  |  |  | 
COc1cc2c(cc1Nc1nc(Nc3ccc4nccnc4c3P(C)(C)=O)c3cc[nH]c3n1)-c1cnn(C)c1CCN2C [Compound 60] | 10 to 50 | < 10 | 1 to 10 | < 10 |  |  |  | 
COc1cc2c(cc1Nc1ncc(Br)c(Nc3ccc4nccnc4c3N(C)S(C)(=O)=O)n1)-c1cnn(C)c1CCN2C(C)C [Compound 131] | > 1000 | 10 to 50 | 1 to 10 | 10 to 50 |  |  |  | 
COc1cc2c(cc1Nc1ncc(Br)c(Nc3ccn4ccnc4c3NS(C)(=O)=O)n1)-c1cnn(C)c1CCN2C(C)C [Compound 110] | 100 to 1000 | 10 to 50 | 1 to 10 | 50 to 100 |  |  |  | 

More lines, main results first:

IC50 [1, 5] [nM] | IC50 [2, 6] [nM] | IC50 [3, 7] [nM] | IC50 [4, 8] [nM] | SMILES | IC50 [1, 9] [nM] | IC50 [2, 10] [nM] | IC50 [4, 11] [nM] | IC50 [3] [nM]
100 to 1000 | < 10 | 1 to 10 | < 10 | COc1cc2c(cc1Nc1ncc(Br)c(Nc3ccc4nccnc4c3P(C)(C)=O)n1)-c1cnn(C)c1CCN2C1CCN(C2CC(F)(F)C2)CC1 [Compound 96] |  |  |  | 
100 to 1000 | < 10 | 1 to 10 | < 10 | COc1cc2c(cc1Nc1ncc(Br)c(Nc3ccc4nccnc4c3P(C)(C)=O)n1)-c1cnn(C)c1CCN2C(C)C [Compound 6] |  |  |  | 
100 to 1000 | < 10 | 1 to 10 | 10 to 50 | COc1cc2c(cc1Nc1ncc(Br)c(Nc3ccc4nccnc4c3P(C)(C)=O)n1)-c1cnn(C)c1CC(O)C2 (stereo not shown) [Compound 31] |  |  |  | 
100 to 1000 | < 10 | 1 to 10 | < 10 | COc1nc2c(cc1Nc1ncc(Br)c(Nc3ccc4nccnc4c3P(C)(C)=O)n1)-c1cnn(C)c1CCN2 [Compound 52] |  |  |  | 
50 to 100 | < 10 | 1 to 10 | < 10 | COc1cc2c(cc1Nc1ncc(Br)c(Nc3ccc4nccnc4c3P(C)(C)=O)n1)-c1cnn(C)c1CCO2 [Compound 33] |  |  |  | 
100 to 1000 | < 10 | 1 to 10 | < 10 | COc1cc2c(cc1Nc1ncc(Br)c(Nc3ccc4nccnc4c3N(C)S(=O)(=O)C3CC3)n1)-c1cnn(C)c1CCN2C [Compound 21] |  |  |  | 
100 to 1000 | 10 to 50 | 1 to 10 | 10 to 50 | COc1cc2c(cc1Nc1ncc(Br)c(Nc3ccc4nccnc4c3P(C)(C)=O)n1)-c1cnn(C3COC3)c1CCN2C(C)C [Compound 98] |  |  |  | 
100 to 1000 | 10 to 50 | 10 to 50 | 10 to 50 | COc1cc2c(cc1Nc1ncc(Br)c(Nc3ccc4nccnc4c3P(C)(C)=O)n1)-c1cnn(C)c1CN(C)C2=O [Compound 9] |  |  |  | 
50 to 100 | < 10 | 1 to 10 | < 10 | COc1cc2c(cc1Nc1ncc(Br)c(Nc3ccc4nccnc4c3P(C)(C)=O)n1)-c1cnn(C)c1CNC2 [Compound 71] |  |  |  | 
